From patent publication US8530386B2, “Herbicidal compositions for tolerant or resistant sugar beet crops” (Bayer Intellectual Property GmbH, priority 1998, dated 2013)
Where a name gives a salt, the structure may show the parent alone.

Key:
Format in all cases: in vivo
transgenic sugar beet [1] = assay: Damage to transgenic sugar beet, field trial (Table 4); details: application in 3-leaf stage
Protocol: (§1) Transgenic sugar beet plants with resistance to one or more herbicides (A) were grown together with typical weed plants in the open in 2×5 m plots under natural field conditions; alternatively, the weed population established naturally while the sugar beet plants grew. Treatment with the compositions according to the invention and, for control purposes, with separate application of the active ingredients of the components alone, was carried out under standard conditions with a plot sprayer at an application rate of 200-300 liters of water per hectare in parallel trials in accordance with the scheme of Table 1, i.e. pre-sowing/pre-emergence, post-sowing/pre-emergence or post-emergence at the early, medium or late stage.
(§2) At 2, 4, 6 and 8 week intervals after application, the herbicidal activity of the active ingredients or active ingredient mixtures were scored visually by comparing the treated plots with untreated control plots. Damage and development of all aerial plant organs was recorded. The scoring was done using a percentage scale (100% activity=all plants dead, 50% activity=50% of the plants and green plant organs dead, 0% activity=no discernible effect=like control plot). The score values of in each case 4 plots were averaged.
(§3) In contrast, the sugar beet plants suffered no, or only negligible, damage as a consequence of the treatment with the herbicidal compositions.

transgenic sugar beet [2] = assay: Damage to transgenic sugar beet, greenhouse experiment (Table 3); parameters: scale not given here; details: application in the 4-5-leaf stage
transgenic sugar beet [3] = assay: Damage to transgenic sugar beet, field trial (Table 5); details: application in the 3-5-leaf stage
Protocol: as §1, §2, §3

Galium aparine [4] = assay: Herbicidal action, field trial (Table 7); details: application in the 4-5-leaf stage, scoring 26 days after application
Protocol: as §1
(§4) […] Damage and development of all aerial plant organs was recorded. The scoring was done using a percentage scale (100% activity=all plants dead, 50% activity=50% of the plants and green plant organs dead, 0% activity=no discernible effect=like control plot). The score values of in each case 4 plots were averaged.
as §3

Avena fatua = assay: Herbicidal action and selectivity in sugar beet crop, field trial (Table 5); details: application in the 3-5-leaf stage, scoring 4 weeks after application
Protocol: as §1, §2, §3

Galium aparine [5] = assay: Herbicidal action in sugar beet crop, greenhouse experiment (Table 3); details: application in the 4-5-leaf stage, scoring 3 weeks after application
Description: Seeds or rhizomes of monocotyledonous and dicotyledonous weeds are placed in sandy loam soil in cardboard pots, covered with soil and grown in the greenhouse under good growth conditions. […] The compositions according to the invention, which are formulated as wettable powders or as emulsion concentrates, are sprayed at various dosages onto the green plant organs at an application rate of 600 to 800 l of water per ha (converted). After the experimental plants have remained in the greenhouse for approx. 3 to 4 weeks under optimal growth conditions, the effect of the preparations is scored visually in comparison with untreated controls. The compositions according to the invention also have a good herbicidal activity against a broad spectrum of economically important grass weeds and broad-leaved weeds when applied post-emergence.
In this context, activities of the combinations according to the invention are frequently observed which exceed the formal total of the activities when the herbicides are applied individually. The observed values show, at suitably low dosages, an activity of the combinations which exceed Colby's expected values (cf. scoring in Example 1).

transgenic sugar beet [6] = assay: Damage to transgenic sugar beet - field trial (Table 2); details: application in 2-4-leaf stage
Protocol: as §1, §2, §3

Setaria viridis = assay: Herbicidal action, field trial, sequential treatment (Table 8); details: dose 200 g A.S./ha; post-emergence at the 2-3-leaf stage; scoring 22 days after application
Protocol: as §1, §4, §3

Amaranthus retroflexus = assay: as above; details: dose 200 g A.S./ha; post-emergence at the 2-3-leaf stage; scoring 22 days after application
Protocol: as §1, §4, §3

Galium aparine [7] = assay: Herbicidal action, field trial (Table 6); details: application in the 3-5-leaf stage, scoring 4 weeks after application
Protocol: as §1, §2, §3

CCC/C(=N\OCC)C1=C(O)CC(CC(C)SCC)CC1=O (centres unmarked) [(B4.1), (E,Z)-2-(1-ethoxyiminobutyl)-5-[2-(ethylthio)propyl]-3-hydroxycyclohex-2-enone]
Damage to transgenic sugar beet (transgenic sugar beet [1]; dose 105 g A.S./ha): 0 | Damage to transgenic sugar beet (transgenic sugar beet [1]; dose 210 g A.S./ha): 0 | Damage to transgenic sugar beet (transgenic sugar beet [1]; dose 315 g A.S./ha): 0

Cc1nnc(-c2ccccc2)c(=O)n1N [(B1.4), 4-amino-4,5-dihydro-3-methyl-6-phenyl-1,2,4-triazin-5-one]
Damage to transgenic sugar beet (transgenic sugar beet [2]; dose 750 g A.S./ha): 0 | Damage to transgenic sugar beet (transgenic sugar beet [2]; dose 1500 g A.S./ha): 0 | Damage to transgenic sugar beet (transgenic sugar beet [2]; dose 3000 g A.S./ha): 0

CCOC(=O)C(C)Oc1ccc(Oc2nc3ccc(Cl)cc3o2)cc1 (racemic) [(B3.2), fenoxaprop-ethyl (rac.)]
Damage to transgenic sugar beet (transgenic sugar beet [3]; dose 15 g A.S./ha): 0 | Damage to transgenic sugar beet (transgenic sugar beet [3]; dose 30 g A.S./ha): 0 | Damage to transgenic sugar beet (transgenic sugar beet [3]; dose 60 g A.S./ha): 0

CC(C)N.O=C(O)CNCP(=O)(O)O [(A2.2), monoisopropylammonium salt of glyphosate]
Herbicidal action in % against Galium aparine (Galium aparine [4]; dose 125 g A.S./ha): 10% | Herbicidal action in % against Galium aparine (Galium aparine [4]; dose 250 g A.S./ha): 40% | Herbicidal action in % against Galium aparine (Galium aparine [4]; dose 500 g A.S./ha): 60% | Herbicidal action in % against Galium aparine (Galium aparine [4]; dose 1000 g A.S./ha): 85%

CCCC(=NOCC)C1=C(O)CC(C2CCCSC2)CC1=O (centres unmarked) [(B4.2), 2-(1-ethoxyiminobuytl)-3-hydroxy-5-thian-3-ylcyclohex-2-enone]
Damage to transgenic sugar beet (transgenic sugar beet [1]; dose 62.5 g A.S./ha): 0 | Damage to transgenic sugar beet (transgenic sugar beet [1]; dose 125 g A.S./ha): 0 | Damage to transgenic sugar beet (transgenic sugar beet [1]; dose 250 g A.S./ha): 0

COC(=O)[C@@H](C)Oc1ccc(Oc2ncc(C(F)(F)F)cc2Cl)cc1 [(B3.4), haloxyfop-P-methyl]
Damage to transgenic sugar beet (transgenic sugar beet [3]; dose 15 g A.S./ha): 0 | Damage to transgenic sugar beet (transgenic sugar beet [3]; dose 30 g A.S./ha): 0 | Herbicidal action in % against Avena fatua (Avena fatua; dose 15 g A.S./ha): 20% | Herbicidal action in % against Avena fatua (Avena fatua; dose 30 g A.S./ha): 63%

COC(=O)Nc1cccc(NC(=O)Oc2cccc(C)c2)c1 [(B2.2), 3-methylphenyl N-[3-(methoxycarbonylamino)phenyl]carbamate]
Herbicidal action in % against Galium aparine (Galium aparine [4]; dose 500 g A.S./ha): 20% | Herbicidal action in % against Galium aparine (Galium aparine [4]; dose 1000 g A.S./ha): 30% | Herbicidal action in % against Galium aparine (Galium aparine [4]; dose 2000 g A.S./ha): 30% | Herbicidal action in % against Galium aparine (Galium aparine [5]; dose 500 g A.S./ha): 20% | Herbicidal action in % against Galium aparine (Galium aparine [5]; dose 1000 g A.S./ha): 30% | Herbicidal action in % against Galium aparine (Galium aparine [5]; dose 2000 g A.S./ha): 30% | Damage to transgenic sugar beet (transgenic sugar beet [2]; dose 500 g A.S./ha): 0 | Damage to transgenic sugar beet (transgenic sugar beet [2]; dose 1000 g A.S./ha): 0 | Damage to transgenic sugar beet (transgenic sugar beet [2]; dose 2000 g A.S./ha): 0

O=C(O)c1nc(Cl)ccc1Cl [(B2.4), 3,6-dichloropyridine-2-carboxylic acid]
Damage to transgenic sugar beet (transgenic sugar beet [2]; dose 50 g A.S./ha): 0 | Damage to transgenic sugar beet (transgenic sugar beet [2]; dose 100 g A.S./ha): 0 | Damage to transgenic sugar beet (transgenic sugar beet [2]; dose 200 g A.S./ha): 0

CP(=O)(O)CCC(N)C(=O)O (centres unmarked) [(A1.2), glufosinate monoammonium salt]
Damage to transgenic sugar beet (transgenic sugar beet [6]; dose 37.5 g A.S./ha): 0 | Damage to transgenic sugar beet (transgenic sugar beet [6]; dose 75 g A.S./ha): 0 | Damage to transgenic sugar beet (transgenic sugar beet [6]; dose 150 g A.S./ha): 0 | Damage to transgenic sugar beet (transgenic sugar beet [6]; dose 300 g A.S./ha): 0 | Damage to transgenic sugar beet (transgenic sugar beet [3]; dose 150 g A.S./ha): 0 | Damage to transgenic sugar beet (transgenic sugar beet [3]; dose 300 g A.S./ha): 0 | Damage to transgenic sugar beet (transgenic sugar beet [3]; dose 600 g A.S./ha): 0 | Herbicidal action in % against Galium aparine (Galium aparine [5]; dose 125 g A.S./ha): 45% | Herbicidal action in % against Galium aparine (Galium aparine [5]; dose 250 g A.S./ha): 60% | Herbicidal action in % against Galium aparine (Galium aparine [5]; dose 500 g A.S./ha): 85% | Damage to transgenic sugar beet (transgenic sugar beet [1]; dose 0 g A.S./ha): 0 | Damage to transgenic sugar beet (transgenic sugar beet [1]; dose 10 g A.S./ha): 0 | Damage to transgenic sugar beet (transgenic sugar beet [1]; dose 65 g A.S./ha): 0 | Herbicidal action in % against Setaria viridis (Setaria viridis): 60% | Herbicidal action in % against Amaranthus retroflexus (Amaranthus retroflexus): 55% | Herbicidal action in % against Galium aparine (Galium aparine [7]; dose 250 g A.S./ha): 20% | Herbicidal action in % against Galium aparine (Galium aparine [7]; dose 300 g A.S./ha): 40% | Herbicidal action in % against Galium aparine (Galium aparine [7]; dose 600 g A.S./ha): 85% | Damage to transgenic sugar beet (transgenic sugar beet [2]; dose 125 g A.S./ha): 0 | Damage to transgenic sugar beet (transgenic sugar beet [2]; dose 250 g A.S./ha): 0 | Damage to transgenic sugar beet (transgenic sugar beet [2]; dose 500 g A.S./ha): 0
